Test results: patent US20260374739A1, “SMALL MOLECULAR WEIGHT CHEMICAL COMPOUND TO ANTAGONIZE EPH-EPHRIN TETRAMERIZATION AND INHIBIT BIDIRECTIONAL SIGNALING” (THE BOARD OF REGENTS OF THE UNIVERSITY OF TEXAS SYSTEM, priority 2022, published 2026)
Values joined by “and” are separate entries in the source; they are usually repeats but may differ in a detail not shown here. Identical values can stand only once.

Biological target: T1, EphB2-EphrinB2 (Mus musculus, UniProt P54763)
T1 sequence (P54763 19-543 limits assumed): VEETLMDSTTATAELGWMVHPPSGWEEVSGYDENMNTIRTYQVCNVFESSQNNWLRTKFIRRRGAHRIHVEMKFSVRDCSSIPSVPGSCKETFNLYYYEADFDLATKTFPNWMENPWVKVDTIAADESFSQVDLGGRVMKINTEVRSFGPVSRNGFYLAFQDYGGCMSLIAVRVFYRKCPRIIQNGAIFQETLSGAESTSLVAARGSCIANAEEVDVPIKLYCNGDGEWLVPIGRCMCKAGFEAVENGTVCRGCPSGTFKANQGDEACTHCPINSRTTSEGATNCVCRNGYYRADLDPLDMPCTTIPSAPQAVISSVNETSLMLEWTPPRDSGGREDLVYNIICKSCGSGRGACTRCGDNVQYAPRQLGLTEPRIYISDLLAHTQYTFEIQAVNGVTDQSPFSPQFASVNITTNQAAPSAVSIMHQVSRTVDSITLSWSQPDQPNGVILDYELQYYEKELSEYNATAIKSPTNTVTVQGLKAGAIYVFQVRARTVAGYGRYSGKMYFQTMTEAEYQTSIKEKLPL
Assay: Octet, immobilized mouse EphB2 binding to mouse EphrinB2
Details: for IC50: immobilized mouse EphB2, 50 nM soluble mouse EphrinB2
Text: The novel compound A20-I is a halogen replacement that changes the 7-bromine in A20 for iodine and had enhanced tetramerization inhibitor activity (FIGS. 38A-38D). This is evident when comparing results of A20-I and A20 salt compounds on the interaction of immobilized mouse EphB2 ectodomain binding to soluble mouse EphrinB2 ectodomain (FIG. 38A and FIG. 38B) or soluble human EphrinA5 (FIG. 38C). […] During these interactions of immobilized EphB ectodomains binding to soluble EphrinB2, the tetramer is much more surmountable by addition of an active compound than for the reverse experiment where EphrinB2 is immobilized and EphB2 is the soluble component in the assay (see FIG. 11, FIG. 17, and FIG. 25A-FIG. 25C). It is believed that the more resistant unsurmountable tetramer formed by immobilized EphrinB2 binding to soluble EphB ectodomains provides for the most rigorous test for determining IC50 values and thus utilizing this EphrinB2-EphB2 assay for analysis of all compounds, provide uniformity in observed results. The results described herein with A20-I and using the human EphrinB2-EphB2 interaction indicates replacements can be made in the 7-bromine in A20 that lead to enhanced tetramerization inhibitor activity.

[1] = Absolute Association IC50, mEphB2-mEphrinB2, association, absolute
[2] = Absolute Dissociation IC50, mEphB2-mEphrinB2, dissociation, absolute
[3] = Relative Association IC50, mEphB2-mEphrinB2, association, relative
[4] = Relative Dissociation IC50, mEphB2-mEphrinB2, dissociation, relative

O=[N+]([O-])c1cc(CN2CCOCC2)c2cccnc2c1O [Compound 10, 4-((8-hydroxy-7-nitroquinolin-1-ium-5-yl)methyl)morpholin-4-ium chloride]
IC50 [1]: < 10000 nM | IC50 [2]: < 10000 nM | IC50 [3]: < 10000 nM | IC50 [4]: < 10000 nM

O=S1(=O)CCN(Cc2ccc(O)c3ncccc23)CC1 [Compound 15, 4-((8-hydroxyquinolin-1-ium-5-yl)methyl)thiomorpholin-4-ium 1,1-dioxide chloride]
IC50 [1]: 100000 nM | IC50 [2]: 6530 nM | IC50 [3]: 6310 nM | IC50 [4]: 990 nM

Oc1c(I)cc(CN2CCOCC2)c2cccnc12 [Compound 8, 4-((8-hydroxy-7-iodoquinolin-1-ium-5-yl)methyl)morpholin-4-ium chloride]
IC50 [1]: 690 nM and 1300 nM | IC50 [2]: 470 nM and 510 nM | IC50 [3]: 300 nM and 410 nM | IC50 [4]: 250 nM and 510 nM

Oc1ccc(CN2CCOCC2)c2cccnc12 [Compound 1, 5-(morpholinomethyl)quinolin-8-ol]
IC50 [1]: 100000 nM | IC50 [2]: 9900 nM | IC50 [3]: 10900 nM | IC50 [4]: 900 nM

Oc1c(I)cc(CN2CCOCC2)c2cccnc12 [Compound 7, 7-iodo-5-(morpholinomethyl)quinolin-8-ol]
elimination of tetramer (100 μM): eliminated all tetramer species

Oc1c(Br)cc(CN2CCOCC2)c2cccnc12 [Compound 6, 4-((7-bromo-8-hydroxyquinolin-1-ium-5-yl)methyl)morpholin-4-ium chloride]
IC50 [1]: 2920 nM | IC50 [2]: 680 nM | IC50 [3]: 1040 nM | IC50 [4]: 500 nM

Oc1ccc(CN2CCN(Cc3ccc(C(F)(F)F)cc3)CC2)c2cccnc12 [Compound 48, 5-((4-(4-(trifluoromethyl)benzyl)piperazin-1-yl)methyl)quinolin-8-ol]
IC50 [1]: 100000 nM | IC50 [2]: 8120 nM | IC50 [3]: 12100 nM | IC50 [4]: 2120 nM

Oc1c(Cl)cc(CN2CCOCC2)c2cccnc12 [Compound 4, 4-((7-chloro-8-hydroxyquinolin-1-ium-5-yl)methyl)morpholin-4-ium chloride]
IC50 [1]: 4290 nM | IC50 [2]: 900 nM | IC50 [3]: 940 nM | IC50 [4]: 630 nM
